What was measured:
[1] = The drug is tested on Collinsella intestinalis strain: DSM13280 for biotransformation. The drug concentrations were measured before and after a 12-h incubation by liquid-chromatography-coupled mass spectrometry (LC–MS); conditions: 2 µM
[2] = The drug is tested on Alistipes indistinctus strain: DSM22520 for biotransformation. The drug concentrations were measured before and after a 12-h incubation by liquid-chromatography-coupled mass spectrometry (LC–MS); conditions: 2 µM
[3] = The drug is tested on Coprococcus comes strain: ATCC27758 for biotransformation. The drug concentrations were measured before and after a 12-h incubation by liquid-chromatography-coupled mass spectrometry (LC–MS); format: ADME; parameters: dose 2 uM, timepoint 0 vs 12 hours; conditions: 2 µM
[4] = bacteroides stercoris, 12 h, 2 µM
Description: The drug is tested on Bacteroides stercoris strain: ATCC43183 for biotransformation. The drug concentrations were measured before and after a 12-h incubation by liquid-chromatography-coupled mass spectrometry (LC–MS)

[5] = enterocloster bolteae, 12 h, 2 µM
Description: The drug is tested on Clostridium bolteae strain: ATCCBAA-613 for biotransformation. The drug concentrations were measured before and after a 12-h incubation by liquid-chromatography-coupled mass spectrometry (LC–MS)

[6] = bacteroides fragilis, 12 h, 2 µM
Description: The drug is tested on Bacteroides fragilis strain: NCTC 9343 for biotransformation. The drug concentrations were measured before and after a 12-h incubation by liquid-chromatography-coupled mass spectrometry (LC–MS)

[7] = roseburia intestinalis, 12 h, 2 µM
Description: The drug is tested on Roseburia intestinalis strain: L1-82 for biotransformation. The drug concentrations were measured before and after a 12-h incubation by liquid-chromatography-coupled mass spectrometry (LC–MS)

| Structure (SMILES) | Bacterial Biotransformation [1] | Bacterial Biotransformation [2] | Bacterial Biotransformation [3] | Bacterial Biotransformation [4] | Bacterial Biotransformation [5] | Bacterial Biotransformation [6] | Bacterial Biotransformation [7] |
| --- | --- | --- | --- | --- | --- | --- | --- |
| CCCC1O[C@@H]2C[C@H]3[C@@H]4CCC5=CC(=O)C=C[C@]5(C)[C@H]4[C@@H](O)C[C@]3(C)[C@]2(C(=O)CO)O1 (stereo partly drawn) [BUDESONIDE] | Compound NOT metabolized | Compound NOT metabolized | Compound NOT metabolized | Compound metabolized | Compound NOT metabolized | – | – |
| CNCCC(Oc1ccc(C(F)(F)F)cc1)c1ccccc1 (stereo not drawn) [FLUOXETINE] | Compound NOT metabolized | Compound metabolized | – | Compound metabolized | Compound metabolized | Compound metabolized | Compound metabolized |
| OC(CCN1CCCCC1)(c1ccccc1)C1CC2C=CC1C2 (stereo not drawn) [BIPERIDEN] | Compound NOT metabolized | Compound NOT metabolized | Compound NOT metabolized | Compound NOT metabolized | Compound NOT metabolized | – | Compound NOT metabolized |
| CN1C(=O)CCS(=O)(=O)C1c1ccc(Cl)cc1 (stereo not drawn) [CHLORMEZANONE] | Compound NOT metabolized | Compound metabolized | – | – | Compound NOT metabolized | Compound NOT metabolized | – |
| CCOC(=O)[C@H](CCc1ccccc1)N[C@@H](C)C(=O)N1Cc2ccccc2C[C@H]1C(=O)O | Compound metabolized | – | Compound NOT metabolized | Compound metabolized | Compound NOT metabolized | Compound metabolized | Compound NOT metabolized |
| O=C1CN2Cc3c(ccc(Cl)c3Cl)N=C2N1 [ANAGRELIDE] | Compound NOT metabolized | Compound NOT metabolized | Compound NOT metabolized | Compound NOT metabolized | Compound NOT metabolized | Compound NOT metabolized | – |
| CCC1(c2ccc(N)cc2)CCC(=O)NC1=O (stereo not drawn) [AMINOGLUTETHIMIDE] | Compound NOT metabolized | – | Compound NOT metabolized | Compound NOT metabolized | Compound NOT metabolized | Compound NOT metabolized | Compound NOT metabolized |
| CN(C)C(=O)Oc1cc(OC(=O)N(C)C)cc(C(O)CNC(C)(C)C)c1 (stereo not drawn) [BAMBUTEROL] | Compound NOT metabolized | – | Compound NOT metabolized | Compound NOT metabolized | Compound NOT metabolized | Compound NOT metabolized | Compound NOT metabolized |
| CCCc1nc(C(C)(C)O)c(C(=O)OCc2oc(=O)oc2C)n1Cc1ccc(-c2ccccc2-c2nnn[nH]2)cc1 [OLMESARTAN MEDOXOMIL] | – | – | – | Compound metabolized | Compound metabolized | Compound metabolized | – |
| NC12CC3CC(CC(C3)C1)C2 [AMANTADINE] | Compound NOT metabolized | – | Compound NOT metabolized | Compound NOT metabolized | Compound NOT metabolized | – | Compound NOT metabolized |
| CC#C[C@]1(O)CC[C@H]2[C@@H]3CCC4=CC(=O)CCC4=C3[C@@H](c3ccc(N(C)C)cc3)C[C@@]21C [MIFEPRISTONE] | Compound NOT metabolized | – | Compound NOT metabolized | Compound metabolized | Compound NOT metabolized | Compound metabolized | Compound NOT metabolized |
| Clc1ccc(Cn2c(CN3CCCC3)nc3ccccc32)cc1 [CLEMIZOLE] | Compound NOT metabolized | Compound NOT metabolized | Compound NOT metabolized | Compound NOT metabolized | Compound NOT metabolized | – | Compound NOT metabolized |
| CCN(CC)CCNC(=O)c1ccc(NC(C)=O)cc1 [ACECAINIDE] | Compound NOT metabolized | Compound NOT metabolized | Compound NOT metabolized | – | Compound NOT metabolized | – | Compound NOT metabolized |
| CN(C)CCc1c[nH]c2ccc(CS(=O)(=O)N3CCCC3)cc12 [ALMOTRIPTAN] | Compound NOT metabolized | – | Compound NOT metabolized | Compound NOT metabolized | Compound NOT metabolized | Compound NOT metabolized | Compound NOT metabolized |
| NS(=O)(=O)c1cc2c(cc1Cl)N=C(CSCc1ccccc1)NS2(=O)=O [BENZTHIAZIDE] | Compound NOT metabolized | Compound NOT metabolized | – | Compound NOT metabolized | Compound NOT metabolized | – | Compound NOT metabolized |
| CNC(=C[N+](=O)[O-])NCCSCc1ccc(CN(C)C)o1 [RANITIDINE] | Compound metabolized | – | Compound metabolized | Compound NOT metabolized | Compound NOT metabolized | Compound metabolized | Compound metabolized |
| C[N+]12CCC(CC1)C(OC(=O)C(O)(c1ccccc1)c1ccccc1)C2.[Br-] (stereo not drawn) [CLIDINIUM BROMIDE] | Compound NOT metabolized | – | Compound NOT metabolized | Compound NOT metabolized | – | Compound NOT metabolized | Compound NOT metabolized |
| CN(C)CCOC(c1ccc(Cl)cc1)c1ccccn1.O=C(O)/C=C\C(=O)O (stereo not drawn) [CARBINOXAMINE MALEATE] | Compound NOT metabolized | – | Compound NOT metabolized | Compound NOT metabolized | Compound NOT metabolized | Compound NOT metabolized | Compound NOT metabolized |
